Results published in patent publication US4350699A, “Pyridylalkoxysulfinyl derivatives of carbamate esters” (priority 1981, dated 1982).

Key:
House Flies = settings: for House Flies LD50: topical on the notum, 1 μl acetone solution, 24 hours; for toxicity against house flies (in words): judged from LD50 of Table I
Method: (§1) Representative compounds of the pyridylalkoxysulfinyl derivatives of carbamate esters of the invention were tested for insecticidal activity against house flies and tobacco cutworms, and for mammalian toxicity against mice.
In the test for houseflies, stock 1% concentrated solutions of each of the test compounds and the commercially related carbamate ester insecticide, methomyl, were made in acetone, and such solutions were diluted with acetone to a concentration of 0.001-0.1%. House flies were treated topically on the notum by 1 μl of each of the diluted acetone solutions and percent mortality was counted 24 hours after application.

tobacco cutworms = assay: test against tobacco cutworms (3rd instar larvae), cabbage leaf dip, mortality counted 72 hours after the treatment; type: in vivo; settings: for mortality at 100 ppm / mortality at 500 ppm: foliar, leaf dip, 72 hours
Method: In the test against tobacco cutworms, aqueous solutions containing each toxicant at 100 and 500 ppm and an emulsifying agent, Shingramin, at 0.03% were prepared. The composition of Shingramin is understood to consist of 20% of polyoxyethylene dodecyl ether and polyoxyethylene alkylaryl ether, 12% ligninsulfonates and 68% inert solvents, by weight. A cabbage leaf was dipped into each of these solutions for 30 seconds, and put in a paper cup of 8 cm diameter. Ten tobacco cutworms (3rd instar larvae) were released onto the leaf. Two leaves were used for each dilution. Mortality of the insects was counted 72 hours after the treatment.

Mice = assay: in vivo; settings: compared with parent carbamate (methomyl or MIP)
Method: as §1
(§2) Mammalian toxicity was determined against Swiss white mice. The test compound was applied orally using propylene glycol as the carrier.

in vivo = settings: mouse, in vivo, po
Method: as §1, §2

Row | Structure (SMILES) | House Flies LD50 (House Flies) | mortality at 100 ppm (tobacco cutworms) | mortality at 500 ppm (tobacco cutworms) | mammalian toxicity (in words) (Mice) | toxicity against house flies (in words) (House Flies) | potency for tobacco cutworms (in words) (tobacco cutworms; compared with methomyl) | LD50 (in vivo)
1 | CNC(=O)ON=C(C)SC [methomyl, reference compound] | 3.7 µg/g | 100% | 100% | much higher toxicity | – | – | –
2 | CSC(C)=NOC(=O)N(C)S(=O)OCc1ccccn1 (stereo not shown) [I, S-methyl N-[N'-methyl-N'-(2-pyridylmethoxy)-sulfinylcarbamoyloxy] thioacetimidate] | 7.0 µg/g | 5% | 65% | low | good toxicity | not as potent as methomyl | 85 mg/kg
3 | CC(C)c1cccc(OC(=O)N(C)S(=O)OCc2ccccn2)c1 (stereo not shown) [IX, 3-Isopropylphenyl N-(2-pyridylmethoxysulfinyl)-N-methylcarbamate] | 111.5 µg/g | – | – | substantially lower mammalian toxicity | good toxicity | – | 105 mg/kg
4 | CNC(=O)Oc1cccc(C(C)C)c1 [MIP, reference compound] | – | – | – | much higher mammalian toxicity | – | – | –
5 | CSC(C)=NOC(=O)N(C)S(=O)OCc1cccnc1 (stereo not shown) [III, S-methyl N-[N'-methyl-N'-(3-pyridylmethoxy)sulfinylcarbamoyloxy]-thioacetimidate] | 5.8 µg/g | 85% | 100% | low | good toxicity | – | 96 mg/kg
